In patent US20050203000A1, “Use of benzyl alcohol, and other phenolic preservatives to reduce pain during intradermal injection” (priority 2003, published 2005):

Columns and labels:
[1] = Dermal irritancy of preservatives in intradermal formulations (Draize dermal irritation scoring); assay type: in vivo, human; conditions: irritancy potential had been seen in animal models such as swine
Excerpt: Benzyl alcohol, m-cresol and other preservatives were previously thought to be deleterious for inclusion in ID formulations based on their potential for dermal irritancy measured in animal models such as swine (Draize Irritancy Scores, NB 00-8440-01). In humans, however, these effects are not observed and beneficial results are gained in the perception of reduced pain.
(§1) Typically, each participating subject received a series of ‘treatments’ consisting of intradermal infusions or injections of either sterile unpreserved isotonic saline, or sterile bacteriostatic isotonic saline for injection in the anterior thigh using microneedle-based intradermal injection devices. Participants were asked to rate the pain immediately after the device was applied to the skin, and at the end of the injection/infusion procedure. In addition, injection sites were evaluated for irritation using the Draize dermal irritation scoring scale for erythema and edema, and for the presence of any other adverse skin effects, occurring at the time of injection or developing at a later time.

[2] = Pain perception of intradermal injection/infusion, Gracely Box SL Scale (0-20), human clinical study; assay type: in vivo; conditions: recent clinical trials
Description: A series of prospective, randomized, open label human clinical studies were conducted. The following inclusion criteria was typically used: • 18 years of age or older • In stable health status with no acute or severe illness • Willing to complete all study procedures • Available for designated study days
as §1, with “time. […]” for “time.”
Pain was determined using a Gracely Box SL Scale (reference: Heft, Gracely and Dubner, Pain, 1980, 9:363-373). Pain scores were typically recorded after insertion of the intradermal delivery device, and upon complete intradermal instillation of the total saline dose. […]
Typically, pain scale scores were analyzed by ANOVA using a linear-type model. […]

| Compound | Dermal irritancy effects in humans [1] | Pain scores for intradermal delivery compared with preservative-free solutions [2] |
| --- | --- | --- |
| OCc1ccccc1 [Benzyl alcohol] | not observed |  |
| Cc1cccc(O)c1 [m-cresol] | not observed |  |
| insulin |  | significantly lower pain scores |
